These results are taken from patent US20260265271A1, “Cereblon Ligands and Uses Thereof” (REGENTS OF THE UNIVERSITY OF MICHIGAN, priority 2022, published 2026).

One may read the DC50 as the concentration giving 50% degradation. Usually Dmax stands for the largest share of the target that was removed.

In the test the target is T1, IKZF2 (Homo sapiens, UniProt Q96SW2+Q9UKS7).
T1 construct: host or cells: Jurkat-IKZF2-HiBiT
Nature of the test: IKZF2 HiBiT degradation assay (Jurkat-IKZF2-HiBiT). The following applies: for DC50: read-out: IKZF2 degradation DC50; for Dmax: read-out: IKZF2 degradation Dmax (%). Format: cell-based. As for the experimental part:
Degradation of IKZF2 protein was determined by IKZF2 HiBiT assay using the Jurkat-IKZF2-HiBiT (Promega) cell line. […] Compounds were serially diluted in culture medium, and 20 μl of the diluted compounds were added to the appropriate wells of the plate. After the addition of compounds, the cells were incubated at 37° C. in an atmosphere of 5% CO2 for 24 hours. At the end of treatment, 40 ul of Nano-Glo HiBiT Lytic Detection Reagent (Promega) was added to each well, and then the plates were incubated at room temperature for 10-20 minutes. The luminescent signal was measured using a CALRIOstar plate reader (BMG Labtech). The readings were normalized to the DMSO-treated cells and the IC50 was calculated by nonlinear regression (four parameters sigmoid fitted with variable slope, least squares fit, and no constraint) analysis using the GraphPad Prism 8 software.
A general note: With HiBiT, luminescence reflects the tagged protein that the partner subunit can reach.

Where [1] appears, read: Jurkat-IKZF2-HiBiT cells, 24 hours.

Like-named read-outs stand apart in the source and are kept apart here.

T1 sequence (Q9UKS7 whole entry): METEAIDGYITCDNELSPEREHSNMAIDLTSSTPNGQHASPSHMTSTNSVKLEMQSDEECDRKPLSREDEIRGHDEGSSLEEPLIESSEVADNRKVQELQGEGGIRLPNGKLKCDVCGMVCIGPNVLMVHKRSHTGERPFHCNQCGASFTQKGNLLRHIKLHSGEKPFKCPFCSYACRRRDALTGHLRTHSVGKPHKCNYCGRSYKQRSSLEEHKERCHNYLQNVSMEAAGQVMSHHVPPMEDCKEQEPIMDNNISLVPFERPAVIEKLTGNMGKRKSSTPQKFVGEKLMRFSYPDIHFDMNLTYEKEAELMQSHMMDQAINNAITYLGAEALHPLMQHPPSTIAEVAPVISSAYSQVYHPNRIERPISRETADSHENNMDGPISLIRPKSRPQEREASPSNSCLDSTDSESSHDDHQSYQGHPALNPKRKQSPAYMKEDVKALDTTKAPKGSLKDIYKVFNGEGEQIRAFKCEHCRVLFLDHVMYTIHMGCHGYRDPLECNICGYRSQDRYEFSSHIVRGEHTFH
T1 sequence (Q96SW2 whole entry): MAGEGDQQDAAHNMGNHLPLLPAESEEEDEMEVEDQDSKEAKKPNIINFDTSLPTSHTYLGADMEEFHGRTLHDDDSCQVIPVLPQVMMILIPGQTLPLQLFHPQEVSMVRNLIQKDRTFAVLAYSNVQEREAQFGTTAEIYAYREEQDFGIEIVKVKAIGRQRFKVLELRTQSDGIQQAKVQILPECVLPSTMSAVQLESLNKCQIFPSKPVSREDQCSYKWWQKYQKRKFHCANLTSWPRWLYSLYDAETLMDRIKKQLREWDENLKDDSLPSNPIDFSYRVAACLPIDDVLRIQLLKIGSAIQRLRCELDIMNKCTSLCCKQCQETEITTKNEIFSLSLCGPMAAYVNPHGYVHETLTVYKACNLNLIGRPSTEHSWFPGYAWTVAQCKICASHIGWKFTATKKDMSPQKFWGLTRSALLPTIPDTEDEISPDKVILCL
T1 sequence (Q16531 2-1140 partner limits assumed): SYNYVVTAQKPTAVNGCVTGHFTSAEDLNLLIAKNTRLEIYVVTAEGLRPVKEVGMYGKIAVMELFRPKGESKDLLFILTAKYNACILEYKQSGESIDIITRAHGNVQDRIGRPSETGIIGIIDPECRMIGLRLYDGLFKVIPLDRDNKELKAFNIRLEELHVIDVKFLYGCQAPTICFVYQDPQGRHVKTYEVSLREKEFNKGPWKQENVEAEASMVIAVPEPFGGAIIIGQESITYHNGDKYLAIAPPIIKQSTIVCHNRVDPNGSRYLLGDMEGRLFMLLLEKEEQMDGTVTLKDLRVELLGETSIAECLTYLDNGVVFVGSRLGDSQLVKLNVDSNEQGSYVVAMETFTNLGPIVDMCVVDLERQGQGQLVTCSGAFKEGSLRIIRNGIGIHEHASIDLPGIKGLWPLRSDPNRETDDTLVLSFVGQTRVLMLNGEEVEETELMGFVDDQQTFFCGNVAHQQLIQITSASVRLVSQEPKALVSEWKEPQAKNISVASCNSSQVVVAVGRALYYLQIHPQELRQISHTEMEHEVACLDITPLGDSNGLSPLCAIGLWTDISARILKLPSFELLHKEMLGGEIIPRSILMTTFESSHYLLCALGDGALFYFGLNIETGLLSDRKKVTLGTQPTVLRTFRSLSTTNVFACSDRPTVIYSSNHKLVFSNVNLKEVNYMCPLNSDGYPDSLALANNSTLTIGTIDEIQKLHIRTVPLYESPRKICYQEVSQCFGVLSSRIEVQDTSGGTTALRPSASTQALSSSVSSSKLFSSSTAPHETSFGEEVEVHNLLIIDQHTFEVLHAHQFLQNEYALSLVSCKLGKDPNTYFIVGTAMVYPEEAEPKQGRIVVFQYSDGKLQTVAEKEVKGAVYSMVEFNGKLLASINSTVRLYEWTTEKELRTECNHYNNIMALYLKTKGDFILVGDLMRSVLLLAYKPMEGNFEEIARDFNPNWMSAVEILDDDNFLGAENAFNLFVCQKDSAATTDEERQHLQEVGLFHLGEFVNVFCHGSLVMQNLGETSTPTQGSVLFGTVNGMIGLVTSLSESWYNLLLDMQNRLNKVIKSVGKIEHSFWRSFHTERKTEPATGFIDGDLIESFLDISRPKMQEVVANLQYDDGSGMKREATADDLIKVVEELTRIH

On to `CC1(C)CCC(CN2CCN3c4cc5c(cc4OC[C@@H]3C2)C(=O)N([C@H]2CCC(=O)NC2=O)C5)CC1` [Compound C34, (S)-3-((S)-3-((4,4-dimethylcyclohexyl)methyl)-8-oxo-1,2,3,4,4a,5,8,10-octahydro-9H-pyrazino[1′,2′:4,5][1,4]oxazino[2,3-f]isoindol-9-yl)piperidine-2,6-dione], for which the Dmax is 68%. Also, the DC50 under setting [1] was determined as 414 nM.

For `O=C1CC[C@H](N2Cc3cc4c(cc3C2=O)OC[C@@H]2CN(Cc3cccc(NC(=O)c5ccccc5Cl)c3)CCN42)C(=O)N1` [Compound C25, 2-chloro-N-(3-(((S)-9-((S)-2,6-dioxopiperidin-3-yl)-8-oxo-1,2,4a,5,9,10-hexahydro-8H-pyrazino[1′,2′:4,5][1,4]oxazino[2,3-f]isoindol-3(4H)-yl)methyl)phenyl)benzamide], the Dmax was 45%. Further, the DC50 under setting [1] is over 1000 nM.

For `O=C1CCC(N2Cc3cc4c(cc3C2=O)OC[C@@H]2CN(CC3CCCCC3)CCN42)C(=O)N1` (stereo partly drawn) [Compound C2, 3-((S)-3-(cyclohexylmethyl)-8-oxo-1,2,3,4,4a,5,8,10-octahydro-9H-pyrazino[1′,2′:4,5][1,4]oxazino[2,3-f]isoindol-9-yl)piperidine-2,6-dione], the maximal degradation (Dmax) is 56%. In addition, the half-maximal degradation concentration (DC50) under setting [1] was 1400 nM.

In the case of `C[C@H]1CC[C@H](CN2CCN3c4cc5c(cc4OC[C@@H]3C2)C(=O)N([C@H]2CCC(=O)NC2=O)C5)CC1` [Compound C33, (S)-3-((S)-3-(((1r,4S)-4-methylcyclohexyl)methyl)-8-oxo-1,2,3,4,4a,5,8,10-octahydro-9H-pyrazino[1′,2′:4,5][1,4]oxazino[2,3-f]isoindol-9-yl)piperidine-2,6-dione], the Dmax was found to be 67%. For the same compound, the DC50 under setting [1] came out at 515 nM.

In the case of `O=C1CCC(N2Cc3cc4c(cc3C2=O)OC[C@H]2CN(CC3CCCC3)CCN42)C(=O)N1` (stereo partly drawn) [Compound C30, 3-((R)-3-(cyclopentylmethyl)-8-oxo-1,2,3,4,4a,5,8,10-octahydro-9H-pyrazino[1′,2′:4,5][1,4]oxazino[2,3-f]isoindol-9-yl)piperidine-2,6-dione], the Dmax worked out at 0%. For the same compound, the DC50 under setting [1] is over 1000 nM.

With `O=C1CCC(N2Cc3cc4c(cc3C2=O)OC[C@@H]2CN(Cc3ccccc3)CCN42)C(=O)N1` (stereo partly drawn) [Compound C1, 3-((S)-3-benzyl-8-oxo-1,2,3,4,4a,5,8,10-octahydro-9H-pyrazino[1′,2′:4,5][1,4]oxazino[2,3-f]isoindol-9-yl)piperidine-2,6-dione], the maximal degradation (Dmax) came to 27%. Under setting [1], the DC50 was over 2000 nM.

Regarding `CC(C)(C)OC(=O)N1CCC2(CCC(CN3CCN4c5cc6c(cc5OC[C@@H]4C3)C(=O)N([C@H]3CCC(=O)NC3=O)C6)CC2)CC1` [Compound C38, tert-butyl 9-(((S)-9-((S)-2,6-dioxopiperidin-3-yl)-8-oxo-1,2,4a,5,9,10-hexahydro-8H-pyrazino[1′,2′:4,5][1,4]oxazino[2,3-f]isoindol-3(4H)-yl)methyl)-3-azaspiro[5.5]undecane-3-carboxylate], the Dmax came to 57%. Besides, under setting [1], the 50% degradation concentration (DC50) came out at 424 nM.

As for `O=C1CC[C@H](N2Cc3cc4c(cc3C2=O)OC[C@@H]2CN(CC3CCC3)CCN42)C(=O)N1` [Compound C31, (S)-3-((S)-3-(cyclobutylmethyl)-8-oxo-1,2,3,4,4a,5,8,10-octahydro-9H-pyrazino[1′,2′:4,5][1,4]oxazino[2,3-f]isoindol-9-yl)piperidine-2,6-dione], the Dmax stood at 58%. Besides, the half-maximal degradation concentration (DC50) under setting [1] was found to be 1260 nM.

Consider `O=C1CCC(N2Cc3cc4c(cc3C2=O)OC[C@@H]2CN(CC3CCCC3)CCN42)C(=O)N1` (stereo partly drawn) [Compound C4, 3-((S)-3-(cyclopentylmethyl)-8-oxo-1,2,3,4,4a,5,8,10-octahydro-9H-pyrazino[1′,2′:4,5][1,4]oxazino[2,3-f]isoindol-9-yl)piperidine-2,6-dione], for which the Dmax came out at 61%. The DC50 under setting [1] was 430 nM.

`CCCN1CCN2c3cc4c(cc3OC[C@@H]2C1)C(=O)N(C1CCC(=O)NC1=O)C4` (stereo partly drawn) [Compound C3, 3-((S)-8-oxo-3-385.21propyl-1,2,3,4,4a,5,8,10-octahydro-9H-pyrazino[1′,2′:4,5][1,4]oxazino[2,3-f]isoindol-9-yl)piperidine-2,6-dione]: the Dmax stood at 58%. Besides, the DC50 under setting [1] is over 2000 nM.

As to `O=C1CC[C@H](N2Cc3cc4c(cc3C2=O)OC[C@@H]2CN(CC3CC5CCC3CC5)CCN42)C(=O)N1` (stereo partly drawn) [Compound C37, (3S)-3-((4aS)-3-(bicyclo[2.2.2]octan-2-ylmethyl)-8-oxo-1,2,3,4,4a,5,8,10-octahydro-9H-pyrazino[1′,2′:4,5][1,4]oxazino[2,3-f]isoindol-9-yl)piperidine-2,6-dione], the maximal degradation (Dmax) was 69%. For the same compound, the DC50 under setting [1] came to 318 nM.

In the case of `Cc1ccc(C(=O)Nc2cccc(CN3CCN4c5cc6c(cc5OC[C@@H]4C3)C(=O)N([C@H]3CCC(=O)NC3=O)C6)c2)cc1` [Compound C23, N-(3-(((S)-9-((S)-2,6-dioxopiperidin-3-yl)-8-oxo-1,2,4a,5,9,10-hexahydro-8H-pyrazino[1′,2′:4,5][1,4]oxazino[2,3-f]isoindol-3(4H)-yl)methyl)phenyl)-4-methylbenzamide], the Dmax came out at 77%. Also, the 50% degradation concentration (DC50) under setting [1] was found to be 18 nM.

With `COc1ccc(C(=O)Nc2cccc(CN3CCN4c5cc6c(cc5OC[C@H]4C3)C(=O)N(C3CCC(=O)NC3=O)C6)c2)cc1` (stereo partly drawn) [Compound C22, N-(3-(((4aR)-9-(2,6-dioxopiperidin-3-yl)-8-oxo-1,2,4a,5,9,10-hexahydro-8H-pyrazino[1′,2′:4,5][1,4]oxazino[2,3-f]isoindol-3(4H)-yl)methyl)phenyl)-4-methoxybenzamide], the Dmax amounted to 44%. Under setting [1], the 50% degradation concentration (DC50) is over 1000 nM.

`CC(=O)N1CCC(CCN2CCN3c4cc5c(cc4OC[C@@H]3C2)C(=O)N(C2CCC(=O)NC2=O)C5)CC1` (stereo partly drawn) [Compound C5, 3-((S)-3-(2-(1-acetylpiperidin-4-yl)ethyl)-8-oxo-1,2,3,4,4a,5,8,10-octahydro-9H-pyrazino[1′,2′:4,5][1,4]oxazino[2,3-f]isoindol-9-yl)piperidine-2,6-dione]: the greatest degradation seen (Dmax) amounted to 38%. Also, the half-maximal degradation concentration (DC50) under setting [1] is over 2000 nM.

Take `O=C1CCC(N2Cc3cc(C4CCN(Cc5ccccc5)CC4)ccc3C2=O)C(=O)N1` (centres unmarked) [DKY709]: under setting [1], the Dmax was 67% and the 50% degradation concentration (DC50) worked out at 62 nM.

On to `O=C1CC[C@H](N2Cc3cc4c(cc3C2=O)OC[C@@H]2CN(Cc3cccc(NS(=O)(=O)c5ccccc5)c3)CCN42)C(=O)N1` [Compound C28, N-(3-(((S)-9-((S)-2,6-dioxopiperidin-3-yl)-8-oxo-1,2,4a,5,9,10-hexahydro-8H-pyrazino[1′,2′:4,5][1,4]oxazino[2,3-f]isoindol-3(4H)-yl)methyl)phenyl)benzenesulfonamide], for which the Dmax was 11%. Under setting [1], the DC50 is over 1000 nM.

With `O=C1CC[C@H](N2Cc3cc4c(cc3C2=O)OC[C@@H]2CN(CC3CCC5(CC3)COC5)CCN42)C(=O)N1` [Compound C35, (S)-3-((S)-3-((2-oxaspiro[3.5]nonan-7-yl)methyl)-8-oxo-1,2,3,4,4a,5,8,10-octahydro-9H-pyrazino[1′,2′:4,5][1,4]oxazino[2,3-f]isoindol-9-yl)piperidine-2,6-dione], the greatest degradation seen (Dmax) came to 66%. Besides, the DC50 under setting [1] was 933 nM.

On to `Cn1cc(-c2cccc(CN3CCN4c5cc6c(cc5OC[C@@H]4C3)C(=O)N([C@H]3CCC(=O)NC3=O)C6)c2)cn1` [Compound C20, (S)-3-((S)-3-(3-(1-methyl-1H-pyrazol-4-yl)benzyl)-8-oxo-1,2,3,4,4a,5,8,10-octahydro-9H-pyrazino[1′,2′:4,5][1,4]oxazino[2,3-f]isoindol-9-yl)piperidine-2,6-dione], for which the Dmax is 27%. Besides, under setting [1], the half-maximal degradation concentration (DC50) is over 10000 nM.

With `O=C1CC[C@H](N2Cc3cc4c(cc3C2=O)OC[C@@H]2CN(Cc3cccc(NC(=O)c5ccc(Cl)cc5)c3)CCN42)C(=O)N1` [Compound C24, 4-chloro-N-(3-(((S)-9-((S)-2,6-dioxopiperidin-3-yl)-8-oxo-1,2,4a,5,9,10-hexahydro-8H-pyrazino[1′,2′:4,5][1,4]oxazino[2,3-f]isoindol-3(4H)-yl)methyl)phenyl)benzamide], the Dmax was determined as 77%. Under setting [1], the DC50 was 25 nM.

Regarding `O=C1CC[C@H](N2Cc3cc4c(cc3C2=O)OC[C@@H]2CN(CC3CCCC3)CCN42)C(=O)N1` [Compound C29, (S)-3-((S)-3-(cyclopentylmethyl)-8-oxo-1,2,3,4a,5,8,10-octahydro-9H-pyrazino[1′,2′:4,5][1,4]oxazino[2,3-f]isoindol-9-yl)piperidine-2,6-dione], the Dmax was 61%. Besides, under setting [1], the DC50 was 402 nM.

Consider `O=C1CC[C@H](N2Cc3cc4c(cc3C2=O)OC[C@@H]2CN(CCC3CCCCC3)CCN42)C(=O)N1` [Compound C32, (S)-3-((S)-3-(2-cyclohexylethyl)-8-oxo-1,2,3,4,4a,5,8,10-octahydro-9H-pyrazino[1′,2′:4,5][1,4]oxazino[2,3-f]isoindol-9-yl)piperidine-2,6-dione], for which the Dmax is 71%. Besides, the DC50 under setting [1] was determined as 324 nM.

With `CC(=O)N1CC2(CCC(CN3CCN4c5cc6c(cc5OC[C@@H]4C3)C(=O)N(C3CCC(=O)NC3=O)C6)CC2)C1` (stereo partly drawn) [Compound C6, 3-((S)-3-((2-acetyl-2-azaspiro[3.5]nonan-7-yl)methyl)-8-oxo-1,2,3,4,4a,5,8,10-octahydro-9H-pyrazino[1′,2′:4,5][1,4]oxazino[2,3-f]isoindol-9-yl)piperidine-2,6-dione], the maximal degradation (Dmax) came to 62%. Also, under setting [1], the DC50 is 330 nM.
